Test results as given in the supplement of paper PMC10307832.

Columns and labels:
Experiment in all cases: relative viability (nuclei count vs DMSO), 5 days (fraction); higher = more cells survive
Etoposide + Phenformin = compound: COc1cc([C@@H]2c3cc4c(cc3[C@@H](O[C@@H]3O[C@@H]5CO[C@@H](C)O[C@H]5[C@H](O)[C@H]3O)[C@H]3COC(=O)[C@H]23)OCO4)cc(OC)c1O [Etoposide] + N=C(N)NC(=N)NCCc1ccccc1 [Phenformin] (partner 250 µM)
Summary of the method: (§1)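 Medians of duplicate plates are given as relative viability. That measure is the nuclei count in treated wells divided by the count in vehicle wells. Counts were taken on 4× images of lung cancer cell lines in 1536-well plates, 5 days after pin-tool dosing the day after seeding with one drug alone or a fixed anchor-drug dose plus five library-drug doses (not always all listed) in √10 steps.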

Etoposide + Alpelisib = compound: COc1cc([C@@H]2c3cc4c(cc3[C@@H](O[C@@H]3O[C@@H]5CO[C@@H](C)O[C@H]5[C@H](O)[C@H]3O)[C@H]3COC(=O)[C@H]23)OCO4)cc(OC)c1O [Etoposide] + Cc1nc(NC(=O)N2CCC[C@H]2C(N)=O)sc1-c1ccnc(C(C)(C)C(F)(F)F)c1 [Alpelisib] (partner 2 µM)
Summary of the method: as §1

Etoposide + Palbociclib = compound: COc1cc([C@@H]2c3cc4c(cc3[C@@H](O[C@@H]3O[C@@H]5CO[C@@H](C)O[C@H]5[C@H](O)[C@H]3O)[C@H]3COC(=O)[C@H]23)OCO4)cc(OC)c1O [Etoposide] + CC(=O)c1c(C)c2cnc(Nc3ccc(N4CCNCC4)cn3)nc2n(C2CCCC2)c1=O [Palbociclib] (partner 0.5 µM)
Summary of the method: as §1

Etoposide + Tozasertib = compound: COc1cc([C@@H]2c3cc4c(cc3[C@@H](O[C@@H]3O[C@@H]5CO[C@@H](C)O[C@H]5[C@H](O)[C@H]3O)[C@H]3COC(=O)[C@H]23)OCO4)cc(OC)c1O [Etoposide] + Cc1cc(Nc2cc(N3CCN(C)CC3)nc(Sc3ccc(NC(=O)C4CC4)cc3)n2)n[nH]1 [Tozasertib] (partner 0.1 µM)
Summary of the method: as §1

Row | Cell Line | relative viability (Etoposide + Phenformin; first compound 0.01 µM) | relative viability (Etoposide + Phenformin; first compound 0.03162 µM) | relative viability (Etoposide + Phenformin; first compound 0.1 µM) | relative viability (Etoposide + Phenformin; first compound 0.3162 µM) | relative viability (Etoposide + Phenformin; first compound 1 µM) | relative viability (Etoposide + Alpelisib; first compound 0.01 µM) | relative viability (Etoposide + Alpelisib; first compound 0.03162 µM) | relative viability (Etoposide + Alpelisib; first compound 0.1 µM) | relative viability (Etoposide + Alpelisib; first compound 0.3162 µM) | relative viability (Etoposide + Alpelisib; first compound 1 µM) | relative viability (Etoposide + Palbociclib; first compound 0.01 µM) | relative viability (Etoposide + Palbociclib; first compound 0.03162 µM) | relative viability (Etoposide + Palbociclib; first compound 0.1 µM) | relative viability (Etoposide + Palbociclib; first compound 0.3162 µM) | relative viability (Etoposide + Palbociclib; first compound 1 µM) | relative viability (Etoposide + Tozasertib; first compound 0.01 µM) | relative viability (Etoposide + Tozasertib; first compound 0.03162 µM) | relative viability (Etoposide + Tozasertib; first compound 0.1 µM) | relative viability (Etoposide + Tozasertib; first compound 0.3162 µM) | relative viability (Etoposide + Tozasertib; first compound 1 µM)
1 | NCI-H838 | 0.517 | 0.64 | 0.44 | 0.395 | 0.183 | 0.951 | 1.08 | 0.887 | 0.666 | 0.387 | 0.172 | 0.238 | 0.169 | 0.226 | 0.244 | 0.348 | 0.295 | 0.307 | 0.211 | 0.24
2 | LU99A | 0.898 | 0.992 | 0.589 | 0.579 | 0.16 | 0.522 | 0.629 | 0.331 | 0.24 | 0.143 | 0.392 | 0.427 | 0.266 | 0.226 | 0.166 | 0.283 | 0.277 | 0.262 | 0.247 | 0.241
3 | NCI-H650 | 0.445 | 0.508 | 0.394 | 0.363 | 0.226 | 0.945 | 0.977 | 0.949 | 0.5 | 0.24 | 0.29 | 0.299 | 0.26 | 0.237 | 0.161 | 0.693 | 0.717 | 0.498 | 0.258 | 0.166
4 | HCC-78 | 0.708 | 0.824 | 0.582 | 0.499 | 0.226 | 0.316 | 0.354 | 0.212 | 0.213 | 0.161 | 0.403 | 0.522 | 0.534 | 0.402 | 0.378 | 0.375 | 0.488 | 0.988 | 0.264 | 0.184
5 | NCI-H1755 | 0.63 | 0.671 | 0.597 | 0.589 | 0.495 | 0.919 | 0.907 | 0.888 | 0.871 | 0.639 | 0.436 | 0.397 | 0.454 | 0.429 | 0.456 | 0.57 | 0.577 | 0.565 | 0.483 | 0.44
6 | NCI-H322M | 0.766 | 0.881 | 0.658 | 0.666 | 0.378 | 0.712 | 0.786 | 0.663 | 0.658 | 0.472 | 0.526 | 0.481 | 0.436 | 0.467 | 0.445 | 0.484 | 0.47 | 0.423 | 0.441 | 0.425
7 | PC-3 [JPC-3] | 0.456 | 0.453 | 0.478 | 0.434 | 0.374 | 0.946 | 1.05 | 0.833 | 0.984 | 0.777 | 0.481 | 0.493 | 0.545 | 0.56 | 0.526 | 0.841 | 0.882 | 0.928 | 0.853 | 0.707
8 | NCI-H2405 | 0.381 | 0.432 | 0.415 | 0.364 | 0.283 | 0.714 | 0.801 | 0.482 | 0.582 | 0.34 | 0.536 | 0.549 | 0.355 | 0.477 | 0.328 | 0.745 | 0.77 | 0.86 | 0.576 | 0.294
9 | NCI-H23 | 0.822 | 0.834 | 0.633 | 0.392 | 0.259 | 0.578 | 0.654 | 0.358 | 0.364 | 0.236 | 0.504 | 0.515 | 0.485 | 0.334 | 0.236 | 0.344 | 0.333 | 0.29 | 0.201 | 0.163
10 | NCI-H1793 | 0.329 | 0.47 |  | 0.394 | 0.159 | 0.563 | 0.78 |  | 0.718 | 0.341 |  | 0.321 | 0.2 | 0.305 | 0.29 | 0.324 | 0.311 |  | 0.316 | 0.185
11 | EKVX | 0.262 | 0.271 | 0.196 | 0.254 | 0.178 | 0.693 | 0.974 | 0.584 | 0.693 | 0.343 | 0.358 | 0.434 | 0.21 | 0.375 | 0.282 | 0.412 | 0.355 | 0.312 | 0.326 | 0.221
12 | HOP-62 | 0.71 | 0.795 | 0.578 | 0.475 | 0.276 | 0.995 | 1.25 | 0.518 | 0.663 | 0.294 | 0.408 | 0.478 | 0.464 | 0.356 | 0.273 | 0.388 | 0.386 | 0.366 | 0.279 | 0.203
13 | NCI-H2228 | 0.39 | 0.348 | 0.224 | 0.176 | 0.102 | 0.864 | 1.01 | 0.713 | 0.442 | 0.224 | 0.705 | 0.765 | 0.435 | 0.32 | 0.145 | 0.287 | 0.191 | 0.247 | 0.169 | 0.117
14 | NCI-H358 | 0.341 | 0.402 | 0.219 | 0.114 | 0.0696 | 0.873 | 0.809 | 0.646 | 0.246 | 0.159 | 0.132 | 0.148 | 0.131 | 0.104 | 0.0757 | 0.112 | 0.107 | 0.107 | 0.0887 | 0.0917
15 | EPLC-272H | 0.281 | 0.308 | 0.267 | 0.263 | 0.226 | 0.965 | 0.934 | 0.606 | 0.931 | 0.539 | 0.359 | 0.284 | 0.326 | 0.339 | 0.304 | 0.336 | 0.213 | 0.211 | 0.235 | 0.112
